Data: ChEMBL document CHEMBL4610065, “Isolation and Structural Characterization of Specific Bacterial β-Glucuronidase Inhibitors from Noni (Morinda citrifolia) Fruits” (J Nat Prod, 2020)
The source made the active and inactive calls. No cut-off for these calls is given here.

What was measured:
[1] = biological target: T1, Pancreatic triacylglycerol lipase (Sus scrofa, UniProt P00591); test: Inhibition of porcine pancreatic lipase at 0.1 mg/ml using 4-MU oleate as substrate incubated for 30 min by fluorescence method relative to control; conditions: pig, 0.5 h
T1 sequence (P00591 whole entry): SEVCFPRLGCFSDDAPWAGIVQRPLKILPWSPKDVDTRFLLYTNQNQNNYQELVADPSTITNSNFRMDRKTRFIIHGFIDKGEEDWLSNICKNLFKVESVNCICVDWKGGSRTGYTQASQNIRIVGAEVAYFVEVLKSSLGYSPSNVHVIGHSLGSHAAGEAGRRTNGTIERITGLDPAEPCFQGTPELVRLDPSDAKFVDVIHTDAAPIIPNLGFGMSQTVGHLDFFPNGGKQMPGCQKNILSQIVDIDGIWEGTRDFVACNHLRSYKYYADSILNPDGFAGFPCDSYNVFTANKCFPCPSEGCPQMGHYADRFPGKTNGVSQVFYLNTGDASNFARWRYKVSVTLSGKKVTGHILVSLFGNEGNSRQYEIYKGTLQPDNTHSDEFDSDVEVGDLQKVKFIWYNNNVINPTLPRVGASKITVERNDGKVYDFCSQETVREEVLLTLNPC

Beta-glucuronidase = Beta-glucuronidase (Escherichia coli (strain K12), UniProt P05804); test: Inhibition of Escherichia coli beta-glucuronidase using 4-methylumbelliferyl-beta-D-glucuronide hydrate as substrate preincubated for 5 mins followed by substrate addition and measured after 30 mins by fluorescence method
Rattus norvegicus [2] = organism: Rattus norvegicus; test: Inhibition of rat intestinal alpha-glucosidase at 0.5 mg/ml using pNPG as substrate preincubated for 3 mins followed by substrate addition and measured after 30 mins
Rattus norvegicus [3] = organism: Rattus norvegicus; test: Inhibition of rat intestinal alpha-glucosidase at 1 mg/ml using pNPG as substrate preincubated for 3 mins followed by substrate addition and measured after 30 mins relative to control
[4] = biological target: Beta-glucuronidase (Escherichia coli (strain K12)) (UniProt P05804); test: Potency index, ratio of DSA IC50 to compound IC50 for inhibition of Escherichia coli beta-glucuronidase using 4-methylumbelliferyl-beta-D-glucuronide hydrate as substrate preincubated for 5 mins followed by substrate addition and measured after 30 mins by fluorescence method
Pancreatic alpha-amylase [5] = biological target: T2, Pancreatic alpha-amylase (Sus scrofa, UniProt P00690); test: Inhibition of porcine pancreatic alpha-amylase at 0.1 to 0.5 mg/ml using potato starch as substrate preincubated for 5 mins followed by substrate addition and measured after 3 mins by DNS method; conditions: pig, 0.05 h
T2 sequence (P00690 whole entry): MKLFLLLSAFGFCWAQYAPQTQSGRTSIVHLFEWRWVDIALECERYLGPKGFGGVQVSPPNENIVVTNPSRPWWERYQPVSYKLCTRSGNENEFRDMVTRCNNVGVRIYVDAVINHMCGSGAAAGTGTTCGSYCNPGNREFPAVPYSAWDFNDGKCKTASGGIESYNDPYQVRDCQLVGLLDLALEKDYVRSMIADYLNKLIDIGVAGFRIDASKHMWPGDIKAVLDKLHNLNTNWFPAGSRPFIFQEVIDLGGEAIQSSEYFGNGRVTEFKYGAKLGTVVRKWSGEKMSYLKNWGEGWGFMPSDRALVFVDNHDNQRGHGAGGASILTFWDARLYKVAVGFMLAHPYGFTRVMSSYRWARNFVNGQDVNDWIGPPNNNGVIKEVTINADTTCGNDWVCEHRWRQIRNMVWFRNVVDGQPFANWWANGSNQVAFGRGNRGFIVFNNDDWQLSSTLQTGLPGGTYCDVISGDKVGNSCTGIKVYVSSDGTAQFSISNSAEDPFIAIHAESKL

Pancreatic alpha-amylase [6] = biological target: T2, Pancreatic alpha-amylase; test: Inhibition of porcine pancreatic alpha-amylase at 1 mg/ml using potato starch as substrate preincubated for 5 mins followed by substrate addition and measured after 3 mins by DNS method relative to control; conditions: pig, 0.05 h
[7] = biological target: T1, Pancreatic triacylglycerol lipase; test: Inhibition of porcine pancreatic lipase up to 1 mg/ml using 4-MU oleate as substrate incubated for 30 min by fluorescence method relative to control; conditions: pig, 0.5 h
[8] = biological target: T1, Pancreatic triacylglycerol lipase; test: Inhibition of porcine pancreatic lipase at 5 ug/ml using 4-MU oleate as substrate incubated for 30 min by fluorescence method relative to control; conditions: pig, 0.5 h
Rattus norvegicus [9] = organism: Rattus norvegicus; test: Inhibition of rat intestinal alpha-glucosidase at 0.02 mM using pNPG as substrate preincubated for 3 mins followed by substrate addition and measured after 30 mins relative to control
Pancreatic alpha-amylase [10] = biological target: T2, Pancreatic alpha-amylase; test: Inhibition of porcine pancreatic alpha-amylase at 10 ug/ml using potato starch as substrate preincubated for 5 mins followed by substrate addition and measured after 3 mins by DNS method relative to control; conditions: pig, 0.05 h

Beta-glucuronidase, sequence (P05804 whole entry): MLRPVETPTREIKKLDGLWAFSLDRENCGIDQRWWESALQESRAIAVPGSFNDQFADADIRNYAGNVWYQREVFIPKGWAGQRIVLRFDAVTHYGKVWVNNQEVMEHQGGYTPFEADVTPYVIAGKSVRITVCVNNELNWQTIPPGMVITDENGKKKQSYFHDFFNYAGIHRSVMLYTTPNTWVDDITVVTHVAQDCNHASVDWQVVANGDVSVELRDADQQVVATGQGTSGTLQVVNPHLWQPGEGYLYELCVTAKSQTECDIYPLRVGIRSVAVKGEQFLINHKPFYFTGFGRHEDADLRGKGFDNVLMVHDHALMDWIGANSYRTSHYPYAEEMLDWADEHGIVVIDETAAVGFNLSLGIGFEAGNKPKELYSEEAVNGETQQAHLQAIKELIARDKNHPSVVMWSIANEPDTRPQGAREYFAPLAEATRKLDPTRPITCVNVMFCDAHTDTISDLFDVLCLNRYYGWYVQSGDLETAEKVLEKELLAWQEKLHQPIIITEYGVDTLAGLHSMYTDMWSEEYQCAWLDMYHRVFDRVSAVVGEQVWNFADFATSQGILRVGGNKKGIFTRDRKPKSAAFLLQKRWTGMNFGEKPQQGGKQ
Beta-glucuronidase (Escherichia coli (strain K12)), sequence (P05804 whole entry, looked up): as the sequence (P05804 whole entry) above

SMILES | inhibition (INH) [1] [%] | IC50 (Beta-glucuronidase) [µM] | inhibition (Rattus norvegicus [2]) | inhibition (Rattus norvegicus [3]) | Ratio IC50 [4] | inhibition (INH) (Pancreatic alpha-amylase [5]) | inhibition (INH) (Pancreatic alpha-amylase [6]) [%] | inhibition (INH) [7] [%] | inhibition (INH) [8] [%] | inhibition (Rattus norvegicus [9]) [%] | inhibition (INH) (Pancreatic alpha-amylase [10]) [%]
OC[C@@H]1Oc2cc([C@@H]3OC[C@@H]4[C@H]3CO[C@H]4c3ccc4c(c3)O[C@@H](CO)[C@H](c3ccc(O)c(O)c3)O4)ccc2O[C@H]1c1ccc(O)c(O)c1 | < 56 | 0.95 | inactive | inactive | 3.5 to 39.5 | Not Active | 21 | 85 to 93 |  |  | 
O=C(O)[C@@H](O)[C@H]1OC(=O)[C@H](O)[C@H]1O |  | 24.3 |  |  |  |  |  |  |  |  | 
OC/C=C/c1ccc2c(c1)O[C@H](c1ccc3c(c1)O[C@@H](c1ccc(O)c(O)c1)[C@H](CO)O3)[C@@H](CO)O2 | < 56 | 6.91 | inactive | 12% | 3.5 to 39.5 | Not Active |  | 85 to 93 |  |  | 
OC[C@H]1Oc2ccc([C@@H]3OC[C@@H]4[C@H]3CO[C@H]4c3ccc4c(c3)O[C@H](c3ccc(O)c(O)c3)[C@@H](CO)O4)cc2O[C@@H]1c1ccc(O)c(O)c1 | < 56 | 0.62 | inactive | inactive | 3.5 to 39.5 | Not Active | 21 | 85 to 93 |  |  | 
OC/C=C/c1ccc2c(c1)O[C@@H](CO)[C@H](c1ccc3c(c1)O[C@H](CO)[C@@H](c1ccc(O)c(O)c1)O3)O2 | < 56 | 4.02 | inactive | inactive | 3.5 to 39.5 | Not Active | 21 | 85 to 93 |  |  | 
CCCCCCCCCCC[C@@H](C[C@@H]1OC(=O)[C@H]1CCCCCC)OC(=O)[C@H](CC(C)C)NC=O [ORLISTAT] |  |  |  |  |  |  |  |  | 96 |  | 
C[C@H]1O[C@H](O[C@H]2[C@H](O)[C@@H](O)[C@@H](O[C@H]3[C@H](O)[C@@H](O)C(O)O[C@@H]3CO)O[C@@H]2CO)[C@H](O)[C@@H](O)[C@@H]1N[C@H]1C=C(CO)[C@@H](O)[C@H](O)[C@H]1O (stereo not given in full) [ACARBOSE] |  |  |  |  |  |  |  |  |  | 80 | 94
